Measured values published in patent publication US20210302366A1, “Method for Pathogen Detection” (priority 2020, published 2021).
≈ marks a conversion by molar mass, not a printed value.

Legend:
Staphylococcus aureus = assay: pathogen detection chip (differential drain current) with agar plating, Staphylococcus aureus; format: cell-based; conditions: for blips/sub-blips identified in the electrical signal: first 8 hours of culturing; for biological sample resistant or sensitive to the interacting agent: from electrical signal pattern and CFU; for trend of number of colony-forming unit (CFU) from agar plating: over the course of culturing
Source text: (§1) The drain voltage Vds may cause a drain current Ids to be measured as the electrical signal. In some embodiments, during the course of culturing the biological sample 207A, metabolites and/or the ions of the biological sample 207A generated due to the interaction of which with the interacting agents 207B may cause the front gate voltage Vgs-fg to change and thus the change of drain voltage Vds as well as the measured drain current Ids. By analyzing the electrical signal of the differential drain current ΔIds, several characteristics of the biological sample 207A can be determined within a short time frame and at a relative low sample concentration. In some embodiments, the sensor 20 may occupies a footprint of 5 μm by 5 μm. A bias of +1.8V can be applied to the first gate 209 and a bias of −0.5V can be applied to the second gate 209′ during the measurement of drain current Ids.
(§2) Two approaches can be used to measure the differential drain current ΔIds. One approach is to subtract the drain current Ids measured from a control group of the sensor 20 where no biological sample is introduced into the culturing medium 207 from the drain current Ids measured from an experimental group of the sensor 20 where biological sample is introduced into the culturing medium 207 during the course of culturing. The other approach is to subtract the initial drain current Ids (e.g. at t=0) from the drain current Ids measured from an experimental group of the sensor 20 where biological sample is introduced into the culturing medium 207 during the course of culturing. The latter approach can be adopted for real-time pathogen detection, and the former approach can be adopted in a more systematic study where the concentration of biological sample and the pH value of the culturing medium 207 can be recorded simultaneously.
(§3) To prepare the culturing medium, 200 μL of non-buffered LB broth having predetermined dosages (including zero dosage) of interacting agent was inoculated with predetermined concentration of Staphylococcus aureus and cultured at a temperature of 37° C. The sample was subjected to the pathogen detection using the pathogen detection chip and sensor described herein with a front gate voltage of +1.8V and a back gate voltage of −0.5V for drain current Ids measurement at predetermined time points (e.g., at each hour). The differential drain current ΔIds can be determined using the two approaches previously described, including (1) subtracting the drain current Ids measured from a control group from the drain current Ids measured from an experimental group during the course of culturing; and (2) subtracting the initial drain current Ids (e.g. at t=0) from the drain current Ids measured from an experimental group during the course of culturing. When the former approach is taken, the concentration of biological sample can be determined by agar plating under the same environmental condition.
Sample preparation and measurement condition can be referred to those in Example 2A and are not repeated here for brevity.

Pseudomonas aeruginosa = assay: pathogen detection chip (differential drain current) with agar plating, Pseudomonas aeruginosa; format: cell-based; conditions: for biological sample resistant or sensitive to the interacting agent: from electrical signal pattern and CFU; for trend of number of colony-forming unit (CFU) from agar plating: over the course of culturing
Source text: as §1, §2
as §3, with “Pseudomonas aeruginosa” for “Staphylococcus aureus”
Sample preparation and measurement condition can be referred to those in Example 3A and are not repeated here for brevity. […] For example, in Example 3B, a differential drain current ΔIds of about 0.16 μA can be identified as a blip in the electrical signal.

Escherichia coli = assay: pathogen detection chip (differential drain current) with agar plating, Escherichia coli; format: cell-based; conditions: for differential drain current ΔIds, local maximum: 2nd hour of culturing
Source text: as §1, §2
as §3, with “Escherichia coli” for “Staphylococcus aureus”
Sample preparation and measurement condition can be referred to those in Example 4A and are not repeated here for brevity. […] For example, in Example 4B, a differential drain current ΔIds of greater than 0.07 μA (e.g., about 0.08 μA) can be identified as a blip in the electrical signal. In addition, a differential drain current ΔIds of about 0.04 μA can be identified as a sub-blip at the 6th hour. As previously described, electrical signal lower than 0.03 μA is not considered as a blip or a sub-blip in some of the embodiments.

Escherichia coli K12 = assay: minimum inhibitory concentration (MIC) test; format: cell-based
Escherichia coli pku57 = assay: microbe, parasite or virus in culture
Protocol: To prepare the culturing medium, 200 μL of non-buffered LB broth having predetermined dosages (including zero dosage) of interacting agent was inoculated with predetermined concentration of Escherichia coli and cultured at a temperature of 37° C. The sample was subjected to the pathogen detection using the pathogen detection chip and sensor described herein with a front gate voltage of +1.8V and a back gate voltage of −0.5V for drain current Ids measurement at predetermined time points (e.g., at each hour). The differential drain current ΔIds can be determined using the two approaches previously described, including (1) subtracting the drain current Ids measured from a control group from the drain current Ids measured from an experimental group during the course of culturing; and (2) subtracting the initial drain current Ids (e.g. at t=0) from the drain current Ids measured from an experimental group during the course of culturing. When the former approach is taken, the concentration of biological sample can be determined by agar plating under the same environmental condition.

Klebsiella pneumoniae = assay: pathogen detection chip (differential drain current) with agar plating, Klebsiella pneumoniae; format: cell-based
Source text: The drain voltage Vds may cause a drain current Ids to be measured as the electrical signal. In some embodiments, during the course of culturing the biological sample 207A, metabolites and/or the ions of the biological sample 207A generated due to the interaction of which with the interacting agents 207B may cause the front gate voltage Vgs-fg to change and thus the change of drain voltage Vds as well as the measured drain current Ids. By analyzing the electrical signal of the differential drain current ΔIds, several characteristics of the biological sample 207A can be determined within a short time frame and at a relative low sample concentration. […] A bias of +1.8V can be applied to the first gate 209 and a bias of −0.5V can be applied to the second gate 209′ during the measurement of drain current Ids.
To prepare the culturing medium, 200 μL of non-buffered LB broth having predetermined dosages (including zero dosage) of interacting agent was inoculated with predetermined concentration of Klebsiella pneumoniae and cultured at a temperature of 37° C. […]

[1] = from electrical signal pattern and CFU
[2] = throughout the first 9 hour of culturing

## CC1(C)S[C@@H]2[C@H](NC(=O)[C@H](N)c3ccccc3)C(=O)N2[C@H]1C(=O)O [Ampicillin]
Staphylococcus aureus
  blips/sub-blips identified in the electrical signal: no blips or sub-blips (a differential drain current ΔIds showing local maximum lower than 0.03 μA is not identified as a blip or a sub-blip)
  biological sample resistant or sensitive to the interacting agent: sensitive
  trend of number of colony-forming unit (CFU) from agar plating: monotonic decreasing
Staphylococcus aureus; throughout the first 8 hour of culturing
  differential drain current ΔIds: lower than 0.03 μA
Pseudomonas aeruginosa; 1st hour of culturing
  differential drain current ΔIds, blip: about 0.16 μA
Pseudomonas aeruginosa
  biological sample resistant or sensitive to the interacting agent: resistant
  trend of number of colony-forming unit (CFU) from agar plating: monotonic increasing

## NC[C@H]1O[C@H](O[C@H]2[C@H](O)[C@@H](O[C@H]3O[C@H](CO)[C@@H](O)[C@H](N)[C@H]3O)[C@H](N)C[C@@H]2N)[C@H](O)[C@@H](O)[C@@H]1O [Kanamycin]
Escherichia coli
  differential drain current ΔIds, local maximum: about 0.08 μA
Escherichia coli; 6th hour of culturing
  differential drain current ΔIds, sub-blip: about 0.04 μA
Escherichia coli K12
  MIC: 25 µg/mL (≈ 51.6 µM)
Escherichia coli pku57
  MIC: < 50 µg/mL

## CN[C@@H]1[C@H](O)[C@H](NC)[C@H]2O[C@@]3(O)C(=O)C[C@@H](C)O[C@H]3O[C@@H]2[C@H]1O [Spectinomycin]
Escherichia coli
  differential drain current ΔIds, local maximum: about 0.05 μA
Escherichia coli; [1]
  biological sample resistant or sensitive to the interacting agent: sensitive
Escherichia coli; over the course of culturing
  trend of number of colony-forming unit (CFU) from agar plating: neither increasing or decreasing
Escherichia coli; [2]
  differential drain current ΔIds: lower than 0.07 μA

## Gentamicin
Klebsiella pneumoniae; 3rd hour of culturing, LB broth, 37° C.
  differential drain current ΔIds, blip: about 0.15 μA
Klebsiella pneumoniae; [1]
  biological sample resistant or sensitive to the interacting agent: resistant
Klebsiella pneumoniae; over the course of culturing
  trend of number of colony-forming unit (CFU) from agar plating: monotonic increasing
Staphylococcus aureus
  blips/sub-blips identified in the electrical signal: a blip at the 2nd hour and a sub-blip at the 5th hour
  biological sample resistant or sensitive to the interacting agent: resistant
  trend of number of colony-forming unit (CFU) from agar plating: monotonic increasing
Pseudomonas aeruginosa; first 9 hour of culturing
  blips/sub-blips identified in the electrical signal: no blips or sub-blips (a differential drain current ΔIds showing local maximum lower than 0.03 μA is not identified as a blip or a sub-blip)
Pseudomonas aeruginosa
  biological sample resistant or sensitive to the interacting agent: sensitive
  trend of number of colony-forming unit (CFU) from agar plating: monotonic decreasing
Pseudomonas aeruginosa; [2]
  differential drain current ΔIds: lower than 0.03 μA
